The values that follow come from US11078193B2 (priority 2014, dated 2021).

What is called CC50 is the concentration giving 50% cytotoxicity. A low value points to harm at low concentration. Usually EC50 stands for the concentration at which the effect is half-maximal. A higher EC50 goes with a need for much substance.

Each structure is given as a SMILES string. Bounds are passed on as bounds.

The nature of data set [1]: Cytotoxicity, HepG2 cells, Resazurin assay. It is filed as cell-based. The conditions noted are these: human. On the technique in general: The colour change of resazurin is a common sign of viable cells or microbes.
Data set [2] is described as follows: ATP based toxicity assay (ATPlite), HepG2 cell line. The conditions noted are these: human, HepG2 cells, ATPlite (ATP levels). As for the experimental part: Alternatively, cytotoxicity was determined via an ATP-assay: The ATPlite kit from Perkin Elmer was used to assess compound cytotoxicity on the HepG2 cell line by determination of the ATP (adenosine triphosphate) levels. ATP is a marker for functional integrity and cell viability, because it is present in all metabolically active cells and any form of cell injury will result in a rapid decline in cellular ATP concentration. After compound incubation, 1 volume of ATPlite solution was added to the cells and the luminescence signal was measured.

In data set [3] the test system is HBV. Put plainly: anti HBV activity, HepG2.117 inducibly HBV producing cell line (Tet-off), intracellular HBV DNA by realtime PCR. The conditions noted are these: Hepatitis B virus, 72 h, HepG2.117 cells, 3 days of treatment. The format is cell-based.
Data set [4] concerns HBV. Put plainly: anti-HBV activity, HepG2.2.15 stable transfected cell line, HBV DNA from secreted virions by realtime PCR. The format is cell-based. The conditions noted are these: Hepatitis B virus, 144 h, HepG2.2.15 cells, 6 days of treatment.

Regarding `Cn1cc(S(=O)(=O)NC2(C(F)(F)F)CCC2)c(Cl)c1C(=O)Nc1ccnc(Cl)c1` [Compound 46, 3-chloro-N-(2-chloro-4-pyridyl)-1-methyl-4-[[1-(trifluoromethyl)cyclobutyl]-sulfamoyl]pyrrole-2-carboxamide], the CC50 at 4 days in data set [1] and in data set [2] was over 25000 nM in each case. Further, the EC50 in the data set with HBV [3] came out at 20 nM; with HBV [4], 10 nM.
Molecule `Cc1cc(NC(=O)c2c(Cl)c(S(=O)(=O)N[C@H](C)C(F)(F)F)cn2C)cc(C(F)F)n1` [Compound 177, 3-chloro-N-[2-(difluoromethyl)-6-methyl-4-pyridyl]-1-methyl-[[(1R)-2,2,2-trifluoro-1-methyl-ethyl]sulfamoyl]pyrrole-2-carboxamide] returned a CC50 at 4 days in data set [2] of over 25000 nM. Moreover, the EC50 in the data set with HBV [3] came to 100 nM; with HBV [4], 260 nM.
`Cc1c(S(=O)(=O)N[C@H](C)C(F)(F)F)c(F)c(C(=O)Nc2cc(F)nc(F)c2)n1C` [Compound 199, N-(2,6-difluoro-4-pyridyl)-3-fluoro-1,5-dimethyl-4-[[(1R)-2,2,2-trifluoro-1-methyl-ethyl]sulfamoyl]pyrrole-2-carboxamide] registered a CC50 at 4 days in data set [2] of over 25000 nM. The figures for the EC50 in the data set with HBV [3] and with HBV [4] were 6 nM and under 100 nM, respectively.
For `Cn1cc(S(=O)(=O)NC2(C(F)(F)F)CC2)c(F)c1C(=O)Nc1ccnc(Cl)c1` [Compound 175, N-(2-chloro-4-pyridyl)-3-fluoro-1-methyl-4-[[1-(trifluoromethyl)cyclopropyl]sulfamoyl]pyrrole-2-carboxamide] the same measures were over 25000 nM, 20 nM and 120 nM.
As for `Cc1cc(NC(=O)c2c(F)c(S(=O)(=O)N[C@H](C)C(F)(F)F)cn2C)cc(F)n1` [Compound 152, 3-fluoro-N-(2-fluoro-6-methyl-4-pyridyl)-1-methyl-4-[[(1R)-2,2,2-trifluoro-1-methyl-ethyl]sulfamoyl]pyrrole-2-carboxamide], the 50% cytotoxic concentration (CC50) at 4 days in data set [1] and in data set [2] was over 25000 nM throughout. The EC50 is 10 nM in the data set with HBV [3] and under 100 nM with HBV [4].
Turning to `Cc1cc(NC(=O)c2c(F)c(S(=O)(=O)N[C@H](C)C(F)(F)F)cn2C)cc(Br)n1` [Compound 154, N-(2-bromo-6-methyl-4-pyridyl)-3-fluoro-1-methyl-4-[[(1R)-2,2,2-trifluoro-1-methyl-ethyl]sulfamoyl]pyrrole-2-carboxamide], the CC50 at 4 days in data set [1] and in data set [2] was over 25000 nM throughout. The molecule further registered an EC50 with HBV [3] of 80 nM.
Consider `Cc1cc(NC(=O)c2c(F)c(S(=O)(=O)N[C@H](C)C(C)(F)F)cn2C)cc(C(F)F)n1` [Compound 178, N-[2-(difluoromethyl)-6-methyl-4-pyridyl]-4-[[(1R)-2,2-difluoro-1-methyl-propyl]sulfamoyl]-3-fluoro-1-methyl-pyrrole-2-carboxamide], for which the CC50 at 4 days in data set [2] is over 25000 nM. Also, the values for the EC50 in the data set on HBV [3] and with HBV [4] were 50 nM and 240 nM, respectively.
For the molecule `Cc1cc(NC(=O)c2c(F)c(S(=O)(=O)N[C@H](C)C(C)(F)F)cn2C)cc(F)n1` [Compound 160, 4-[[(1R)-2,2-difluoro-1-methyl-propyl]sulfamoyl]-3-fluoro-N-(2-fluoro-6-methyl-4-pyridyl)-1-methyl-pyrrole-2-carboxamide], the CC50 at 4 days in data set [1] and in data set [2] was over 25000 nM in each case. Besides, in the data set on HBV [3], the EC50 worked out at 10 nM.
For the molecule `Cc1cc(NC(=O)c2c(F)c(S(=O)(=O)N[C@H](C)C(C)(F)F)cn2C)cc(Cl)n1` [Compound 158, N-(2-chloro-6-methyl-4-pyridyl)-4-[[(1R)-2,2-difluoro-1-methyl-propyl]sulfamoyl]-3-fluoro-1-methyl-pyrrole-2-carboxamide], the CC50 at 4 days in data set [1] and in data set [2] was over 25000 nM each time. Further, the EC50 in the data set with HBV [3] was 50 nM.
`Cc1c(S(=O)(=O)N[C@H](C)C(F)(F)F)c(F)c(C(=O)Nc2ccnc(Cl)c2)n1C` [Compound 200, N-(2-chloro-4-pyridyl)-3-fluoro-1,5-dimethyl-4-[[(1R)-2,2,2-trifluoro-1-methyl-ethyl]sulfamoyl]pyrrole-2-carboxamide] showed a CC50 at 4 days in data set [2] of over 25000 nM. Moreover, the EC50 in the data set on HBV [3] was found to be 20 nM; with HBV [4], 110 nM.
In the case of `Cn1cc(S(=O)(=O)NC2(C)CC(F)(F)C2)c(F)c1C(=O)Nc1cc(F)nc(F)c1` [Compound 132, 4-[(3,3-difluoro-1-methyl-cyclobutyl)sulfamoyl]-N-(2,6-difluoro-4-pyridyl)-3-fluoro-1-methyl-pyrrole-2-carboxamide], the CC50 at 4 days in data set [1] and in data set [2] was over 25000 nM each time. Besides, in the data set with HBV [3], the EC50 was 10 nM.
In the case of `Cn1cc(S(=O)(=O)NC2(C)CC(F)(F)C2)c(F)c1C(=O)Nc1ccnc(C(F)F)c1` [Compound 83, 4-[(3,3-difluoro-1-methyl-cyclobutyl)sulfamoyl]-N-[2-(difluoromethyl)-4-pyridyl]-3-fluoro-1-methyl-pyrrole-2-carboxamide], the CC50 at 4 days in data set [1] and in data set [2] was over 25000 nM each time. This molecule also yielded an EC50 in the data set with HBV [3] of 10 nM.
For `Cc1cc(NC(=O)c2c(F)c(S(=O)(=O)N[C@H](C)C(F)(F)F)cn2C)cc(C(F)F)n1` [Compound 179, N-[2-(difluoromethyl)-6-methyl-4-pyridyl]-3-fluoro-1-methyl-[[(1R)-2,2,2-trifluoro-1-methyl-ethyl]sulfamoyl]pyrrole-2-carboxamide], in data set [2], the CC50 at 4 days was over 25000 nM. Further, the figures for the EC50 with HBV [3] and with HBV [4] were 70 nM and 210 nM, respectively.
Turning to `Cn1cc(S(=O)(=O)NC2(C)CC(F)(F)C2)c(F)c1C(=O)Nc1ccnc(C#N)c1` [Compound 53, N-(2-cyano-4-pyridyl)-4-[(3,3-difluoro-1-methyl-cyclobutyl)sulfamoyl]-3-fluoro-1-methyl-pyrrole-2-carboxamide], the CC50 at 4 days in data set [1] and in data set [2] was over 25000 nM in each case. The molecule also registered an EC50 in the data set on HBV [3] of 40 nM.
As to `Cn1cc(S(=O)(=O)NC2(C)CC(F)(F)C2)c(Cl)c1C(=O)Nc1cc(F)nc(F)c1` [Compound 115, 3-chloro-4-[(3,3-difluoro-1-methyl-cyclobutyl)sulfamoyl]-N-(2,6-difluoro-4-pyridyl)-1-methyl-pyrrole-2-carboxamide], the CC50 at 4 days in data set [1] and in data set [2] was over 25000 nM each time. In the data set with HBV [3], a half-maximal response (EC50) required 6 nM.
`Cn1cc(S(=O)(=O)NC2(C(F)(F)F)CCC2)c(Cl)c1C(=O)Nc1ccnc(C(F)F)c1` [Compound 108, 3-chloro-N-[2-(difluoromethyl)-4-pyridyl]-1-methyl-4-[[1-(trifluoromethyl)cyclobutyl]sulfamoyl]pyrrole-2-carboxamide]: the CC50 at 4 days in data set [1] and in data set [2] was over 25000 nM each time. In addition, it took 20 nM to reach a half-maximal effect in the data set with HBV [3] (EC50).
Take `Cc1cc(NC(=O)c2c(Cl)c(S(=O)(=O)N[C@H](C)C(C)(F)F)cn2C)cc(F)n1` [Compound 146, 3-chloro-4-[[(1R)-2,2-difluoro-1-methyl-propyl]sulfamoyl]-N-(2-fluoro-6-methyl-4-pyridyl)-1-methyl-pyrrole-2-carboxamide]: the CC50 at 4 days in data set [1] and in data set [2] was over 25000 nM each time. The same molecule returned an EC50 in the data set with HBV [3] of 30 nM.
For `C[C@@H](NS(=O)(=O)c1cn(C)c(C(=O)Nc2ccnc(Br)c2F)c1Cl)C(F)(F)F` [Compound 139, N-(2-bromo-3-fluoro-4-pyridyl)-3-chloro-1-methyl-4-[[(1R)-2,2,2-trifluoro-1-methyl-ethyl]sulfamoyl]pyrrole-2-carboxamide], the 50% cytotoxic concentration (CC50) at 4 days in data set [1] and in data set [2] was over 25000 nM each time. For the same molecule, the 50% effective concentration (EC50) in the data set with HBV [3] was 20 nM.
For `C[C@@H](NS(=O)(=O)c1cn(C)c(C(=O)Nc2ccnc(Br)c2F)c1F)C(C)(F)F` [Compound 176, N-(2-bromo-3-fluoro-4-pyridyl)-4-[[(1R)-2,2-difluoro-1-methyl-propyl]sulfamoyl]-3-fluoro-1-methyl-pyrrole-2-carboxamide], the CC50 at 4 days in data set [2] was over 25000 nM. Moreover, the EC50 with HBV [3] is 3 nM; with HBV [4], under 100 nM.
Regarding `Cn1cc(S(=O)(=O)NC2(C)CC(F)(F)C2)c(Cl)c1C(=O)Nc1ccnc(Br)c1` [Compound 113, N-(2-bromo-4-pyridyl)-3-chloro-4-[(3,3-difluoro-1-methyl-cyclobutyl)sulfamoyl]-1-methyl-pyrrole-2-carboxamide], the CC50 at 4 days is over 25000 nM in data set [1] and 23700 nM in data set [2]. Further, the EC50 in the data set with HBV [3] was determined as 10 nM.
With `C[C@@H](NS(=O)(=O)c1cn(C)c(C(=O)Nc2cc(F)nc(F)c2Cl)c1Cl)C(F)(F)F` [Compound 185, 3-chloro-N-(3-chloro-2,6-difluoro-4-pyridyl)-1-methyl-4-[[(1R)-2,2,2-trifluoro-1-methyl-ethyl]sulfamoyl]pyrrole-2-carboxamide], the CC50 at 4 days in data set [1] and in data set [2] was over 25000 nM in each case. This molecule returned an EC50 with HBV [3] of 740 nM.
With `C[C@@H](NS(=O)(=O)c1cc(C(=O)Nc2ccnc(C(F)F)c2)n(C)c1)C(C)(F)F` [Compound 100, 4-[[(1R)-2,2-difluoro-1-methyl-propyl]sulfamoyl]-N-[2-(difluoromethyl)-4-pyridyl]-1-methyl-pyrrole-2-carboxamide], the CC50 at 4 days in data set [1] and in data set [2] was over 25000 nM in each case. In the data set on HBV [3], this molecule had an EC50 of 80 nM.
On to `C[C@@H](NS(=O)(=O)c1cn(C)c(C(=O)Nc2ccnc(Br)c2)c1Cl)C(F)(F)F` [Compound 106, N-(2-bromo-4-pyridyl)-3-chloro-1-methyl-4-[[(1R)-2,2,2-trifluoro-1-methyl-ethyl]sulfamoyl]pyrrole-2-carboxamide], for which the CC50 at 4 days in data set [1] and in data set [2] was over 25000 nM throughout. This molecule registered an EC50 in the data set with HBV [3] of 20 nM.
